Columns and labels:
[1] = system: HEK-293T; assay: Incucyte cell viability with HEK293T; type: toxicity, cell-based; settings: human, 10 µM, compound concentration 10 uM
[2] = system: U2OS; assay: Incucyte cell viability with U2OS; type: toxicity, cell-based; settings: human, 10 µM, compound concentration 10 uM
[3] = 0 h, replicate number 1, timepoint 0 hours
[4] = 0 h, replicate number 2, timepoint 0 hours
[5] = 6 h, replicate number 1, timepoint 6 hours
[6] = 6 h, replicate number 2, timepoint 6 hours
[7] = 12 h, replicate number 1, timepoint 12 hours
[8] = 18 h, replicate number 1, timepoint 18 hours
[9] = 24 h, replicate number 1, timepoint 24 hours
[10] = 12 h, replicate number 2, timepoint 12 hours
[11] = 18 h, replicate number 2, timepoint 18 hours
[12] = 24 h, replicate number 2, timepoint 24 hours
Also: filed as whole numbers so only -1 and 0 and 1 occur.

Cn1nc(C(F)(F)F)cc1-c1cnc(N2CCc3cc(S(=O)(=O)Nc4c(F)cc(Cl)cc4F)cc(N4CCCC4=O)c32)nc1 [TP-020]
Growth Rate [1, 3]: 0
Growth Rate [1, 4]: 1
Growth Rate [1, 5]: 0
Growth Rate [1, 6]: 1
Growth Rate [1, 7]: 0
Growth Rate [1, 8]: 0
Growth Rate [1, 9]: 0
Growth Rate [2, 4]: 1
Growth Rate [2, 5]: 0
Growth Rate [2, 7]: 1
Growth Rate [2, 10]: 0
Growth Rate [2, 8]: 1
Growth Rate [2, 11]: 0
Growth Rate [2, 9]: 1
Growth Rate [2, 12]: 0

O=C(Nc1cccnn1)N1CCC(=Cc2cccc(Oc3ccc(C(F)(F)F)cn3)c2)CC1
Growth Rate [1, 4]: 1
Growth Rate [1, 5]: 0
Growth Rate [1, 7]: 0
Growth Rate [1, 8]: 0
Growth Rate [1, 9]: 0
Growth Rate [2, 3]: 0
Growth Rate [2, 5]: 0
Growth Rate [2, 7]: 0
Growth Rate [2, 10]: 1
Growth Rate [2, 8]: 0
Growth Rate [2, 9]: 0

CCCn1c(=O)c2[nH]c(-c3cnn(Cc4cccc(C(F)(F)F)c4)c3)nc2n(CC)c1=O [GS 6201]
Growth Rate [1, 3]: 1
Growth Rate [1, 4]: 0
Growth Rate [1, 5]: 0
Growth Rate [1, 6]: 1
Growth Rate [1, 7]: 0
Growth Rate [1, 10]: 1
Growth Rate [1, 8]: 0
Growth Rate [1, 9]: 0
Growth Rate [2, 3]: 0
Growth Rate [2, 10]: 1
Growth Rate [2, 8]: 1
Growth Rate [2, 11]: 0
Growth Rate [2, 9]: 1
Growth Rate [2, 12]: 0

CNC(=O)c1ccc(Nc2nc(OC3CCCC3)c3c(-c4ccc5nc(C)oc5c4)c[nH]c3n2)c(OC)c1
Growth Rate [1, 4]: 1
Growth Rate [1, 5]: 0
Growth Rate [1, 7]: 0
Growth Rate [1, 8]: 0
Growth Rate [1, 9]: 0
Growth Rate [2, 7]: 1
Growth Rate [2, 8]: 0
Growth Rate [2, 9]: 0

Cc1ccc(C(=O)Nc2cccc(C(F)(F)F)c2)cc1Nc1nc(-c2cccnc2)nc2c1cnn2C
Growth Rate [1, 3]: 0
Growth Rate [1, 5]: 0
Growth Rate [1, 7]: 0
Growth Rate [1, 8]: 0
Growth Rate [1, 9]: 0
Growth Rate [2, 5]: 0
Growth Rate [2, 7]: 0
Growth Rate [2, 8]: 0
Growth Rate [2, 9]: 0

Cn1nc(C(=O)NCc2ccc(C(=O)O)cc2)cc1-c1ccc2[nH]ccc2c1 [BI 4395]
Growth Rate [1, 3]: 0
Growth Rate [1, 4]: 1
Growth Rate [1, 7]: 0
Growth Rate [1, 8]: 0
Growth Rate [1, 11]: 1
Growth Rate [1, 9]: 0
Growth Rate [2, 4]: 0
Growth Rate [2, 5]: 1
Growth Rate [2, 7]: 1
Growth Rate [2, 8]: 1
Growth Rate [2, 9]: 1

C=C1/C(=C\C=C2/CCC[C@]3(C)[C@@H]([C@H](C)/C=C/[C@H](C)C(C)C)CC[C@@H]23)C[C@@H](O)C[C@@H]1O [DOXERCALCIFEROL]
Growth Rate [1, 3]: 0
Growth Rate [1, 5]: 0
Growth Rate [1, 7]: 0
Growth Rate [1, 8]: 0
Growth Rate [1, 9]: 0
Growth Rate [2, 3]: 0
Growth Rate [2, 7]: 1
Growth Rate [2, 10]: 0
Growth Rate [2, 8]: 1
Growth Rate [2, 11]: 0
Growth Rate [2, 9]: 0

Cl.O=C(c1ccc(Nc2nccc(-c3cc4ccccc4s3)n2)cc1)N1CCC(N2CCCC2)CC1
Growth Rate [1, 5]: 0
Growth Rate [1, 7]: 0
Growth Rate [1, 8]: 0
Growth Rate [1, 9]: 0
Growth Rate [2, 4]: 0
Growth Rate [2, 7]: 0
Growth Rate [2, 8]: 0
Growth Rate [2, 9]: 0

CN1CCN(C(=O)C(C)(C)c2ccc(C(=O)Nc3cn4cc(-c5cc(C(C)(C)C)cc(C(C)(C)C)c5)ccc4n3)cc2)CC1 [T3-CLK-N]
Growth Rate [1, 4]: 1
Growth Rate [1, 5]: 0
Growth Rate [1, 7]: 0
Growth Rate [1, 8]: 0
Growth Rate [1, 9]: 0
Growth Rate [2, 4]: 0
Growth Rate [2, 7]: 1
Growth Rate [2, 8]: 0
Growth Rate [2, 11]: 1
Growth Rate [2, 9]: 0
Growth Rate [2, 12]: 1

CCOc1cc(C(=O)N2CCC(N3CCN(C)CC3)CC2)ccc1Nc1ncc2c(n1)N(C1CCCC1)c1ccccc1C(=O)N2C
Growth Rate [1, 4]: 0
Growth Rate [1, 5]: 0
Growth Rate [1, 7]: 0
Growth Rate [1, 8]: 0
Growth Rate [1, 9]: 0
Growth Rate [2, 4]: 0
Growth Rate [2, 5]: 1
Growth Rate [2, 7]: 0
Growth Rate [2, 10]: 1
Growth Rate [2, 8]: 0
Growth Rate [2, 9]: 0

CCc1cccc(CC)c1NC(=O)c1nn(C)c2c1CCc1cnc(Nc3ccc(N4CCN(C)CC4)cc3OC)nc1-2
Growth Rate [1, 4]: 0
Growth Rate [1, 5]: 0
Growth Rate [1, 7]: 0
Growth Rate [1, 8]: 0
Growth Rate [1, 9]: 0
Growth Rate [2, 4]: 0
Growth Rate [2, 5]: 1
Growth Rate [2, 7]: 0
Growth Rate [2, 8]: 0
Growth Rate [2, 9]: 0

O=C(Cc1ccc(-c2ccc(OCCN3CCOCC3)cc2)cn1)NCc1ccccc1 [TIRBANIBULIN]
Growth Rate [1, 5]: 0
Growth Rate [1, 7]: 0
Growth Rate [1, 8]: 0
Growth Rate [1, 9]: 0
Growth Rate [2, 4]: 0
Growth Rate [2, 5]: 1
Growth Rate [2, 7]: 0
Growth Rate [2, 8]: 0
Growth Rate [2, 9]: 0

COCC(=O)NC/C=C/c1ccc2ncnc(Nc3ccc(Oc4ccc(C)nc4)c(C)c3)c2c1 [CP-724714]
Growth Rate [1, 5]: 0
Growth Rate [1, 7]: 0
Growth Rate [1, 8]: 0
Growth Rate [1, 9]: 0
Growth Rate [2, 3]: 0
Growth Rate [2, 4]: 1
Growth Rate [2, 5]: 1
Growth Rate [2, 7]: 1
Growth Rate [2, 8]: 0
Growth Rate [2, 9]: 1
Growth Rate [2, 12]: 0

CCOC(=O)c1c(C)[nH]c2ccc3c(c12)CN1CCc2cc(OC)ccc2C1O3 (stereo not given)
Growth Rate [1, 4]: 0
Growth Rate [1, 5]: 0
Growth Rate [1, 7]: 0
Growth Rate [1, 8]: 0
Growth Rate [1, 9]: 0
Growth Rate [2, 3]: 1
Growth Rate [2, 6]: 1
Growth Rate [2, 7]: 0
Growth Rate [2, 8]: 0
Growth Rate [2, 9]: 0

COc1ccc(S(=O)(=O)N(CCO)c2ccccc2CN(C)C/C=C/c2ccc(Cl)cc2)cc1.O=P(O)(O)O
Growth Rate [1, 5]: 0
Growth Rate [1, 7]: 0
Growth Rate [1, 8]: 0
Growth Rate [1, 9]: 0
Growth Rate [2, 3]: 0
Growth Rate [2, 4]: 1
Growth Rate [2, 5]: 0
Growth Rate [2, 6]: 1
Growth Rate [2, 7]: 0
Growth Rate [2, 10]: 1
Growth Rate [2, 8]: 0
Growth Rate [2, 9]: 0

COc1cc2ncnc(Nc3ccc(F)c(Cl)c3)c2cc1NC(=O)/C=C/CN1CCCCC1 [DACOMITINIB ANHYDROUS]
Growth Rate [1, 5]: 0
Growth Rate [1, 7]: 0
Growth Rate [1, 8]: 0
Growth Rate [1, 9]: 0
Growth Rate [2, 3]: 0
Growth Rate [2, 5]: 0
Growth Rate [2, 7]: 0
Growth Rate [2, 8]: 0
Growth Rate [2, 9]: 0

COc1ccc(-c2ccc3c(N4CCOCC4)nc(N4C[C@@H](C)O[C@@H](C)C4)nc3n2)cc1CO [Ku-0063794]
Growth Rate [1, 5]: 0
Growth Rate [1, 7]: 0
Growth Rate [1, 8]: 0
Growth Rate [1, 9]: 0
Growth Rate [2, 3]: 0
Growth Rate [2, 5]: 1
Growth Rate [2, 7]: 1
Growth Rate [2, 8]: 0
Growth Rate [2, 9]: 0

NC(=O)c1cccc(-c2cc(Nc3ccc(OC(F)(F)F)cc3)ncn2)c1
Growth Rate [1, 3]: 0
Growth Rate [1, 5]: 0
Growth Rate [1, 7]: 0
Growth Rate [1, 8]: 0
Growth Rate [1, 9]: 0
Growth Rate [2, 4]: 1
Growth Rate [2, 5]: 1
Growth Rate [2, 7]: 0
Growth Rate [2, 8]: 1
Growth Rate [2, 11]: 0
Growth Rate [2, 9]: 1
Growth Rate [2, 12]: 0

C=CCn1c(=O)c2cnc(Nc3ccc(N4CCN(C)CC4)cc3)nc2n1-c1cccc(C(C)(C)O)n1 [ADAVOSERTIB]
Growth Rate [1, 5]: 0
Growth Rate [1, 7]: 0
Growth Rate [1, 8]: 0
Growth Rate [1, 9]: 0
Growth Rate [2, 3]: 0
Growth Rate [2, 5]: 0
Growth Rate [2, 7]: 0
Growth Rate [2, 8]: 0
Growth Rate [2, 9]: 0

C[C@H]1Oc2cc(cnc2N)-c2c(nn(C)c2C#N)CN(C)C(=O)c2ccc(F)cc21 [LORLATINIB]
Growth Rate [1, 3]: 0
Growth Rate [1, 5]: 0
Growth Rate [1, 7]: 0
Growth Rate [1, 8]: 0
Growth Rate [1, 9]: 0
Growth Rate [2, 4]: 1
Growth Rate [2, 5]: 1
Growth Rate [2, 7]: 1
Growth Rate [2, 8]: 1
Growth Rate [2, 9]: 1

CNc1cc(Oc2cc(C(=O)Nc3cc(N4CCN(C)CC4)cc(C(F)(F)F)c3)ccc2C)ncn1
Growth Rate [1, 5]: 0
Growth Rate [1, 7]: 0
Growth Rate [1, 8]: 0
Growth Rate [1, 9]: 0
Growth Rate [2, 3]: 0
Growth Rate [2, 4]: 1
Growth Rate [2, 5]: 0
Growth Rate [2, 7]: 0
Growth Rate [2, 8]: 0
Growth Rate [2, 9]: 0

CCc1cccc(CC)c1NC(=O)c1nn(C)c2c1CCc1cnc(Nc3ccc(C(=O)NC4CCN(C)CC4)cc3OC(F)(F)F)nc1-2
Growth Rate [1, 5]: 0
Growth Rate [1, 7]: 0
Growth Rate [1, 8]: 0
Growth Rate [1, 9]: 0
Growth Rate [2, 4]: 0
Growth Rate [2, 5]: 1
Growth Rate [2, 6]: 0
Growth Rate [2, 7]: 0
Growth Rate [2, 8]: 0
Growth Rate [2, 9]: 0

O=C(Nc1ccc(-n2nc(-c3cccnc3)cc2C(F)(F)F)cn1)c1ccc(-c2ccccc2)c(F)c1 [BI 2049]
Growth Rate [1, 3]: 1
Growth Rate [1, 5]: 0
Growth Rate [1, 7]: 0
Growth Rate [1, 8]: 0
Growth Rate [1, 9]: 0
Growth Rate [2, 5]: 0
Growth Rate [2, 6]: 1
Growth Rate [2, 7]: 0
Growth Rate [2, 8]: 0
Growth Rate [2, 9]: 0

Reference: ChEMBL document CHEMBL4689842, “EUbOPEN Chemogenomics Library wave 1” (2021)
